Assays:
[1] = tested on: RAW264.7 cells; assay: MTT cell viability assay; assay type: cell-based, mouse; details: for % cell viability: 24h
Source text: The MTT (3-[4,5-dimethylthiazol-2-yl]-2,5 diphenyl tetrazolium bromide) assay is based on the ability of viable cells with active metabolism to convert the yellow MTT to a purple formazan product, which determines mitochondrial activity. The MTT formazan product agglomerates as an insoluble residuum within the cells, which can be solubilized (in this protocol with DMSO) for homogeneous measurement. Thus, any increase or decrease in the number of viable cells can be detected by measuring the formazan concentration reflected in the optical density (OD) measurement at 540 nm with a reference absorption of 720 nm. This assay is broadly used to measure the in vitro cytotoxic effects of drugs on cell lines or primary cells. For the experimental procedure a standard solution of MTT 1mg/mL in PBS was prepared which after filtration ([…] filter (Millipore, Carrigtwohill, Ireland)) was stored in the dark (4-8 °C) until use. In brief, RAW 264.7 cells were seeded in a 96-well plate at a density of 30.000 cells/ in 100 µL of medium per well. […] This was followed by incubation for 24 h, 48 h and 72 h. At the end of the incubation 10 µL of MTT was added to each well followed by incubation for 4 hours, for the formation of the formazan crystals. The formazan crystals were then dissolved by adding DMSO and stirring lightly for 30 min, after which the absorbance was measured in a plate reader at 540 nm with a reference absorbance of 720 nm. […] Table 4: % cell viability after treatment of RAW264.7 cells with the samples

[2] = tested on: experimental animal model of osteoarthritis (OA); assay: Slope walking test in osteoarthritis rat model; assay type: in vivo, Wistar rats
Protocol: Healthy adult male Wistar rats (150-200 g) were used for the study, with water and food ad libitum, at a constant temperature of 22°C and controlled lighting (12 h light/12 h dark cycle).
As far as the dispersion procedure of the injectables is concerned, all the natural compounds were dissolved in saline solution, whereas the studied nanoparticles were mechanically grinded in a mortar and pestle set with saline solution and Tween 20 (2% w/v) and heated at 36 °C before each treatment. There were six treatments administered every 10 days.
Rats were anesthetized with chloral hydrate. The right knee joints of Group I were injected with normal saline solution and served as a control. Animals from the groups II, III, IV, V, VI, VII were injected with collagenase type II (Clostridium histolyticum). Collagenase (125 collagen digestion unit/mg) was dissolved in saline, and it was injected intra-articularly into the right knee joint twice on days 1 and 4 of the experiment (Al-Saffar, F., H. Ganabadi and S. Fakurazi. Collagenase and sodium iodoacetate-induced experimental osteoarthritis model in Sprague dawley rats. Asian J. Sci. Res. 2: 1-13, 2009). The left knees of all animals were left untreated as a control.
For the evaluation of the effectiveness and time of release of the encapsulated compounds, all animals were subjected to a series of behavioral testing in addition to the measurements of body weight and knees diameter change. The experimental protocol of the present study followed the combination of three different behavioral tests, which are von Frey mechanical allodynia test, grid walking and slope walking test. Behavioral tests are performed in three phases, at the beginning before the start of treatment, in the middle of treatment (approximately 35-40 days) and at the end (after the 70th day).
Walking on an inclined plane was used for the clinical assessment of motor function in rats after induction of OA. The method consists of placing the animal on an inclined plane and then measuring the time (seconds) needed for the animals to go up the walking tray.

[3] = tested on: IL-6 in RAW264.7 cells; assay: IL-6 ELISA in supernatants of LPS-stimulated RAW264.7 cells; assay type: cell-based, mouse; details: 48h after dilution of nanosystems
Protocol: The assay was carried using the MOUSE IL-6 ELISA KIT by ORIGENE_(CATALOG No. EA100128), which was based on the evaluation on Microwell Plates coated with antibody to mouse IL-6. The general protocol provided by the supplier for the evaluation of the samples as well as the development of the standard curve of IL-6 was followed. All reagents and working standards were prepared as directed in the instruction form and determined the number of microwell strips required to test the desired number of samples plus appropriate number of wells needed for running blanks and standards. Then 100µL of Standard, control, or sample, were added per well and the plate was cover with the adhesive strip provided and incubated for 1.5 hours at 37°C.
Afterwards, each well was aspirated and washed, and the process was repeated three times for a total of four washes by filling each well with Wash Buffer. […]
After incubation washing was carried out again, followed by the addition of the working solution of Streptavidin-HRP to each well. […] Finally, the plate was gently tapped to ensure thorough mixing and determine the optical density (OD) of each well immediately, using a microplate reader set to 450 nm (optionally 630nm as the reference wavelength;610-650nm is acceptable).
The OD measured for all samples is reflected on the IL-6 standard curve which was developed following the same steps. […] This quantitative assay is based on the sandwich principal as previously described, utilizing the cell culture supernatants for the evaluation of IL-6 protein presence in LPS-treated cells in the presence of the evaluated samples.
For this protocol, RAW264.7 cells were treated with LPS prior to the measurement to stimulate IL-6 production and results are reported as pg/ml of IL-6 corresponding to the standard curve of IL-6 developed ([…]). […] Table 3: Anti-inflammatory potential of the samples expressed as IL-6 presence in LPS-stimulated RAW264.7 cells supernatants.

[4] = CCK-8 viability assay; assay type: cell-based; details: human, primary human chondrocytes; read-out: Mean % relative viability
Protocol: b) The viability of human primary chondrocytes was evaluated following incubation with increasing concentrations of either the pure Naringin (S1) or the nanosystems (Samples S2 and S3) at 2-10-50µM of encapsulated Naringin (1:5 serial dilutions) for 72h (higher concentrations were not used because the nanosystems become insoluble and aggregates sediment on the cell monolayer). For S2 this corresponded to 6,4 µg/ml (for 2 µM of Naringin), 32 µg/ml (for 10 µM of Naringin) and 158 µg/ml (for 50 µM of Naringin) respectively, of total NP concentration. For S3 (CS[PLA[NAR]]) the total NP concentrations to provide the same µM of encapsulated Naringin were 14,4 / 72 / 360 µg/m). As control for the nanosystems, a blank PLA nanoparticle preparation coated with chitosan (S4) was used, at the same µg/ml polymer concentration like the ones used to achieve the 2-10-50µM range for Naringin (the difference being that the blank contains no Naringin). Finally, the blank S4 was used at the 14,4/72/360 µg/ml concentration range (1:5 serial dilutions). Following incubation, the CCK-8 viability kit was used according to manufacturer's instructions (Sigma, 96992-500TESTS-F). Macroscopical and microscopical observation confirmed the proper complete solubility and dispersion of the Nanoparticles. Importantly, healthy cell morphology was observed (spindle-like attached cells with several processes) with concomitant absence of undissolved material.
Table 5. Effect of the natural products and the nanosystems on the relative cell viability of primary human chondrocytes. Measurements obtained using the CCK-8 viability kit. Values normalized to positive control (PC; set to 100; arbitrary unit). Samples' coding: S1= pure Naringin, S2=Naringin encapsulated in PLA nanoparticles [PLA[NAR]], S3=Naringin encapsulated in PLA nanoparticles coated with chitosan CS[PLA[NAR]], and S4=Blank PLA nanoparticles coated with chitosan, CS(PLA[---]].

For `C[C@@H]1O[C@@H](O[C@H]2[C@H](Oc3cc(O)c4c(c3)O[C@H](c3ccc(O)cc3)CC4=O)O[C@H](CO)[C@@H](O)[C@@H]2O)[C@H](O)[C@H](O)[C@H]1O` [S1 [NAR], Naringin], the “% cell viability” value ([1]; 25 µM) was 100%, the “% cell viability” value ([1]; 50 µM) was 100% and the “cytotoxicity / cell viability (in words)” value ([1]; lower concentrations) was “full cell viability”. For the same compound, the “Slope Walking” value ([2]; 11 days (before treatment)) was 10,3 sec, the “Slope Walking” value ([2]; 40 days (half of experimental protocol)) was 8,9 sec and the “Slope Walking” value ([2]; 70 days (end of experimental protocol)) was 8,6 sec. For the same compound, the IL-6 ([3]; 25 µM) was 720,000 pg/ml, the IL-6 ([3]; 50 µM) was 700,000 pg/ml and the IL-6 ([3]; 100 µM) was 455,000 pg/ml. It also gave a viability at 72 h, 10 µM [4] of 136%, a viability at 72 h, 50 µM [4] of 130% and a viability at 72 h, 200 µM [4] of 111%.

From patent publication EP4385495A1, “NANOSYSTEMS FOR THE ENCAPSULATION OF THERAPEUTIC AGENTS” (National Technical University of Athens, priority 2022, dated 2024)
